Experimental data taken from EP2604265A1, “P2x7 antagonists as frontline or adjunctive treatment against status epilepticus” (Royal College of Surgeons in Ireland (RCSI), priority 2011, dated 2013).

Experiments:
[1] = tested on: Adult male C57BL/6 mice; assay: Intra-amygdala KA-induced SE in mice, EEG, early post-treatment after seizure onset; assay type: in vivo; conditions: i.c.v. 15 min after KA
Method: Adult male C57BL/6 mice (20-25 g) were obtained from Harlan UK (Blackthorn, UK). Mice were first anesthetized using isoflurane (3-5%) and maintained normothermic by means of a feedback-controlled heat blanket (Harvard Apparatus Ltd, Kent, UK). Mice were next placed in a stereotaxic frame and three partial craniectomies performed to affix cortical skull-mounted EEG electrodes (Bilaney Consultants Ltd, Sevenoaks, UK). EEG was recorded using a Grass Comet XL digital EEG (Medivent Ltd, Lucan, Ireland). A guide cannula was affixed (coordinates from Bregma: AP = 0.94; L = 2.85 mm) and the assembly fixed in place with dental cement. Anesthesia was then discontinued and freely moving mice were placed inside a clear perspex recording chamber. EEG recordings were commenced and after establishing baseline EEG for a few minutes, an injection cannula was lowered through the guide cannula for injection of kainic acid (KA) (Ocean Produce International, Nova Scotia, Canada) into the basolateral amygdala nucleus (0.3 µg in 0.2 µl phosphate-buffered saline). Non-seizure control mice underwent the same surgical procedure but received 0.2 µl intra-amygdala vehicle. Mice were killed at different time-points (1, 4, 8 or 24 h) later and perfused with saline to remove intravascular blood components. Brains were either flash-frozen whole in 2-methylbutane at […] or perfused with 4% PFA for histopathology, or dissected on ice to obtain whole hippocampus or microdissected to obtain the different hippocampal subfields (CA1, DG and CA3).
Digitized EEG recordings were analyzed off-line using manual assessment and automated software. The occurrence of high amplitude high frequency spiking during seizures is synonymous with injury-causing electrographic seizures during SE (also termed type IV electrographic seizures) (Lowenstein et al., 1991; Henshall et al., 2000). The duration of high-frequency (>5 Hz) high-amplitude (>2× baseline) polyspike discharges of ≥5 s duration (HAHFDs) was counted by a reviewer blind to treatment. Further EEG analysis was performed by uploading EEG into Labchart7 software (ADInstruments) to calculate the power spectral density (total power, a measure of the input signal's power (amplitude) over frequency) EEG spectrogram (spectral power against frequency and time).
A-438079 (3-[[5-(2,3-Dichlorophenyl)-1H-tetrazol-1-yl]methyl]pyridine hydrochloride) (50 µM) was from Tocris Biosciences (Bristol, U.K.) and the P2X7R specific antibody was from Alomone Labs (APR-008, Alomone Labs, Ltd, Jerusalem, Israel) and injected at 0.7 mg/ml. Lorazepam (Ativan®, Wyeth, Taplow, U.K.) (6 mg/kg) was administered intraperitoneally (i.p.) at 40 or 60 min after KA.
15 min after the injection of KA. […]

[2] = tested on: P2Y receptors; conditions: selectivity of BBG; cited from earlier work
[3] = tested on: IL-1β; assay: Western blot of hippocampal IL-1β after SE; assay type: in vivo, mice; conditions: ipsilateral hippocampus, 24 h after KA
Method: Adult male C57BL/6 mice (20-25 g) were obtained from Harlan UK (Blackthorn, UK). Mice were first anesthetized using isoflurane (3-5%) and maintained normothermic by means of a feedback-controlled heat blanket (Harvard Apparatus Ltd, Kent, UK). Mice were next placed in a stereotaxic frame and three partial craniectomies performed to affix cortical skull-mounted EEG electrodes (Bilaney Consultants Ltd, Sevenoaks, UK). EEG was recorded using a Grass Comet XL digital EEG (Medivent Ltd, Lucan, Ireland). A guide cannula was affixed (coordinates from Bregma: AP = 0.94; L = 2.85 mm) and the assembly fixed in place with dental cement. Anesthesia was then discontinued and freely moving mice were placed inside a clear perspex recording chamber. […]
Western blotting was performed as previously described (Engel et al., 2010). […] Protein concentration was determined and then 20 or 50 µg samples boiled in gel-loading buffer and separated by 10, 12 or 15% sodium dodecyl sulphate-polyacrylamide gel electrophoresis. […] Gel band image densities were captured using a Fuji-film LAS-3000 and analyzed using Alpha-EaseFC4.0 software as described (Engel et al., 2010).

Row | SMILES | duration of HAHFDs ([1]; recorded until lorazepam at 40 min post-KA, vs vehicle) | Total seizure power ([1]; until 40 min post-KA, vs vehicle) | frequency of the EEG ([1]; vs vehicle) | seizure amplitude ([1]; spectral heat map during SE) | inhibition of some P2Y receptors [2] | IL-1β induction after SE [3]
1 | Cl.Clc1cccc(-c2nnnn2Cc2cccnc2)c1Cl [A-438079, 3-[[5-(2,3-Dichlorophenyl)-1H-tetrazol-1-yl]methyl]pyridine hydrochloride] | significantly reduced | significantly reduced | No changes | decreased |  | 
2 | CCOc1ccc(Nc2ccc(C(=C3C=CC(=[N+](CC)Cc4cccc(S(=O)(=O)[O-])c4)C=C3C)c3ccc(N(CC)Cc4cccc(S(=O)(=O)O)c4)cc3C)cc2)cc1 [BBG, Brilliant Blue G] |  |  |  |  | low micromolar range | significantly reduced
